# Data: PubChem BioAssay AID2060606 (Molecular Pharmacology Branch, DTP, NCI, 2025)
# System: 922993-354-T-J3-PDC complex spheroids, viability, % test/control
# Assay: Anticancer human tumor 922993-354-T-J3-PDC patient-derived endometrial carcinoma cell line growth inhibition [CLK]
# Conditions: for IC50: curve of first compound; for viability, T/C: stronger effect = lower value
# How it was run: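 Multi-cell-type spheroids combined patient-derived tumor cells with HUVEC endothelial cells and human mesenchymal stem cells. Paired agents were dosed in half-log steps down from about clinical Cmax, or from 10 microM where Cmax was unknown.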
# 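Also: spheroids exposed to the agents for 7 days before readout.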
structure (smiles),measurement,setting,value
NC(=O)C(=Cn1cnc(-c2cc(C(F)(F)F)cc(C(F)(F)F)c2)n1)c1cncnc1 + CN1CCN(c2cc(C(=O)Nc3cc4cc(-c5cnn(C)c5)ccc4cn3)ccn2)CC1,IC50,second compound 0.0316 µM,229 nM
same,IC50,second compound 0.1 µM,173 nM
same,IC50,second compound 0.316 µM,< 9.49 nM
same,IC50,second compound 1 µM,< 9.49 nM
same,IC50,second compound 3.16 µM,< 9.49 nM
same,IC50,second compound 10 µM,< 9.49 nM
same,"viability, T/C","second compound 0.0316 µM, first compound 0.00949 µM",119%
same,"viability, T/C","second compound 0.0316 µM, first compound 0.03 µM",115%
same,"viability, T/C","second compound 0.0316 µM, first compound 0.0949 µM",82.1%
same,"viability, T/C","second compound 0.0316 µM, first compound 0.3 µM",40.1%
same,"viability, T/C","second compound 0.0316 µM, first compound 0.949 µM",30.6%
same,"viability, T/C","second compound 0.0316 µM, first compound 3 µM",41.2%
same,"viability, T/C","second compound 0.1 µM, first compound 0.00949 µM",118%
same,"viability, T/C","second compound 0.1 µM, first compound 0.03 µM",118%
same,"viability, T/C","second compound 0.1 µM, first compound 0.0949 µM",80.7%
same,"viability, T/C","second compound 0.1 µM, first compound 0.3 µM",21.7%
same,"viability, T/C","second compound 0.1 µM, first compound 0.949 µM",21.5%
same,"viability, T/C","second compound 0.1 µM, first compound 3 µM",20%
same,"viability, T/C","second compound 0.316 µM, first compound 0.00949 µM",48.8%
same,"viability, T/C","second compound 0.316 µM, first compound 0.03 µM",32.3%
same,"viability, T/C","second compound 0.316 µM, first compound 0.0949 µM",4.78%
same,"viability, T/C","second compound 0.316 µM, first compound 0.3 µM",1.32%
same,"viability, T/C","second compound 0.316 µM, first compound 0.949 µM",0.16%
same,"viability, T/C","second compound 0.316 µM, first compound 3 µM",1.43%
same,"viability, T/C","second compound 1 µM, first compound 0.00949 µM",0.11%
same,"viability, T/C","second compound 1 µM, first compound 0.03 µM",0.75%
same,"viability, T/C","second compound 1 µM, first compound 0.0949 µM",0.12%
same,"viability, T/C","second compound 1 µM, first compound 0.3 µM",0.07%
same,"viability, T/C","second compound 1 µM, first compound 0.949 µM",0.71%
same,"viability, T/C","second compound 1 µM, first compound 3 µM",2.13%
same,"viability, T/C","second compound 3.16 µM, first compound 0.00949 µM",0.1%
same,"viability, T/C","second compound 3.16 µM, first compound 0.03 µM",0.13%
same,"viability, T/C","second compound 3.16 µM, first compound 0.0949 µM",0.17%
same,"viability, T/C","second compound 3.16 µM, first compound 0.3 µM",1.63%
same,"viability, T/C","second compound 3.16 µM, first compound 0.949 µM",1.45%
same,"viability, T/C","second compound 3.16 µM, first compound 3 µM",2.46%
same,"viability, T/C","second compound 10 µM, first compound 0.00949 µM",0.14%
same,"viability, T/C","second compound 10 µM, first compound 0.03 µM",0.16%
same,"viability, T/C","second compound 10 µM, first compound 0.0949 µM",1.88%
same,"viability, T/C","second compound 10 µM, first compound 0.3 µM",0.19%
same,"viability, T/C","second compound 10 µM, first compound 0.949 µM",0.8%
same,"viability, T/C","second compound 10 µM, first compound 3 µM",2.01%
